{"source": "paper PMC7686313", "about": "“Phase 1 study of mTORC1/2 inhibitor sapanisertib (TAK-228) in advanced solid tumours, with an expansion phase in renal, endometrial or bladder cancer” (British Journal of Cancer, 2020)", "test": "Safety (adverse events, NCI CTCAE v4.0), expansion phase", "conditions": "expansion QW 40 mg", "description": "Based on data collected during dose-escalation, the expansion phase evaluated the safety and efficacy of QD and QW sapanisertib in patients with RCC, endometrial or bladder cancer. Patients could continue receiving sapanisertib for ≤1 year (or beyond, if the investigator and sponsor agreed) in the absence of disease progression or unacceptable toxicity.\nPatients who received ≥1 dose of sapanisertib were included in the safety population. The response-evaluable population included patients who received ≥1 dose of sapanisertib, had measurable disease at baseline, and had ≥1 postbaseline assessment. […] Adverse events (AEs) were assessed using the National Cancer Institute Common Terminology Criteria for Adverse Events, v4.0. Patients were provided with a home blood-glucose meter to monitor their fasting predose blood-glucose measurements to assess hyperglycaemia as an on-target AE and PD marker.", "data": [{"smiles": "CC(C)n1nc(-c2ccc3oc(N)nc3c2)c2c(N)ncnc21", "note": "[Sapanisertib]", "values": [{"measurement": "Abdominal pain, all-grade AE of any cause", "value": "4 (15) n (%)"}, {"measurement": "Abdominal pain, grade ≥3 AE of any cause", "value": "0 (0) n (%)"}, {"measurement": "Acute kidney injury, grade ≥3 AE of any cause", "value": "2 (8) n (%)"}, {"measurement": "Acute kidney injury, treatment-related AE", "value": "4 (15) n (%)"}, {"measurement": "Anaemia, all-grade AE of any cause", "value": "11 (42) n (%)"}, {"measurement": "Anaemia, grade ≥3 AE of any cause", "value": "3 (12) n (%)"}, {"measurement": "Anaemia, treatment-related AE", "value": "8 (31) n (%)"}, {"measurement": "Any AE", "value": "26 (100) n (%)"}, {"measurement": "Any AE resulting in dose modification/interruption", "value": "20 (77) n (%)"}, {"measurement": "Any AE resulting in treatment discontinuation", "value": "2 (8) n (%)"}, {"measurement": "Any SAE", "value": "9 (35) n (%)"}, {"measurement": "Any grade ≥3 AE", "value": "19 (73) n (%)"}, {"measurement": "Any treatment-related AE", "value": "26 (100) n (%)"}, {"measurement": "Any treatment-related SAE", "value": "4 (15) n (%)"}, {"measurement": "Any treatment-related grade ≥3 AE", "value": "14 (54) n (%)"}, {"measurement": "Arthralgia, all-grade AE of any cause", "value": "7 (27) n (%)"}, {"measurement": "Asthenia, grade ≥3 AE of any cause", "value": "2 (8) n (%)"}, {"measurement": "Asthenia, treatment-related AE", "value": "4 (15) n (%)"}, {"measurement": "Asthenia, treatment-related grade ≥3 AE", "value": "1 (4) n (%)"}, {"measurement": "Blood creatinine increased, all-grade AE of any cause", "value": "5 (19) n (%)"}, {"measurement": "Blood creatinine increased, treatment-related AE", "value": "4 (15) n (%)"}, {"measurement": "Constipation, all-grade AE of any cause", "value": "10 (38) n (%)"}, {"measurement": "Constipation, grade ≥3 AE of any cause", "value": "1 (4) n (%)"}, {"measurement": "Cough, all-grade AE of any cause", "value": "8 (31) n (%)"}, {"measurement": "Decreased appetite, all-grade AE of any cause", "value": "14 (54) n (%)"}, {"measurement": "Decreased appetite, treatment-related AE", "value": "14 (54) n (%)"}, {"measurement": "Dehydration, all-grade AE of any cause", "value": "7 (27) n (%)"}, {"measurement": "Dehydration, grade ≥3 AE of any cause", "value": "3 (12) n (%)"}, {"measurement": "Dehydration, treatment-related AE", "value": "5 (19) n (%)"}, {"measurement": "Dehydration, treatment-related grade ≥3 AE", "value": "2 (8) n (%)"}, {"measurement": "Depression, all-grade AE of any cause", "value": "3 (12) n (%)"}, {"measurement": "Diarrhoea, all-grade AE of any cause", "value": "13 (50) n (%)"}, {"measurement": "Diarrhoea, grade ≥3 AE of any cause", "value": "1 (4) n (%)"}, {"measurement": "Diarrhoea, treatment-related AE", "value": "13 (50) n (%)"}, {"measurement": "Diarrhoea, treatment-related grade ≥3 AE", "value": "1 (4) n (%)"}, {"measurement": "Dizziness, all-grade AE of any cause", "value": "3 (12) n (%)"}, {"measurement": "Dry mouth, all-grade AE of any cause", "value": "7 (27) n (%)"}, {"measurement": "Dry mouth, treatment-related AE", "value": "6 (23) n (%)"}, {"measurement": "Dysgeusia, all-grade AE of any cause", "value": "3 (12) n (%)"}, {"measurement": "Dysgeusia, treatment-related AE", "value": "3 (12) n (%)"}, {"measurement": "Dyspepsia, treatment-related AE", "value": "2 (8) n (%)"}, {"measurement": "Dyspnoea, grade ≥3 AE of any cause", "value": "0 (0) n (%)"}, {"measurement": "Fatigue, all-grade AE of any cause", "value": "24 (92) n (%)"}, {"measurement": "Fatigue, grade ≥3 AE of any cause", "value": "4 (15) n (%)"}, {"measurement": "Fatigue, treatment-related AE", "value": "23 (88) n (%)"}, {"measurement": "Fatigue, treatment-related grade ≥3 AE", "value": "4 (15) n (%)"}, {"measurement": "Haematuria, grade ≥3 AE of any cause", "value": "0 (0) n (%)"}, {"measurement": "Headache, all-grade AE of any cause", "value": "6 (23) n (%)"}, {"measurement": "Headache, treatment-related AE", "value": "4 (15) n (%)"}, {"measurement": "Hypercholesterolemia, treatment-related AE", "value": "0 (0) n (%)"}, {"measurement": "Hyperglycaemia, all-grade AE of any cause", "value": "20 (77) n (%)"}, {"measurement": "Hyperglycaemia, grade ≥3 AE of any cause", "value": "6 (23) n (%)"}, {"measurement": "Hyperglycaemia, treatment-related AE", "value": "20 (77) n (%)"}, {"measurement": "Hyperglycaemia, treatment-related grade ≥3 AE", "value": "6 (23) n (%)"}, {"measurement": "Hyperkalaemia, grade ≥3 AE of any cause", "value": "0 (0) n (%)"}, {"measurement": "Hypertension, grade ≥3 AE of any cause", "value": "1 (4) n (%)"}, {"measurement": "Hypokalaemia, grade ≥3 AE of any cause", "value": "0 (0) n (%)"}, {"measurement": "Hyponatremia, grade ≥3 AE of any cause", "value": "1 (4) n (%)"}, {"measurement": "Hypophosphatemia, grade ≥3 AE of any cause", "value": "2 (8) n (%)"}, {"measurement": "Hypophosphatemia, treatment-related AE", "value": "4 (15) n (%)"}, {"measurement": "Hypophosphatemia, treatment-related grade ≥3 AE", "value": "2 (8) n (%)"}, {"measurement": "Lymphopenia, grade ≥3 AE of any cause", "value": "1 (4) n (%)"}, {"measurement": "Lymphopenia, treatment-related grade ≥3 AE", "value": "0 (0) n (%)"}, {"measurement": "Musculoskeletal chest pain, grade ≥3 AE of any cause", "value": "1 (4) n (%)"}, {"measurement": "Nausea, all-grade AE of any cause", "value": "20 (77) n (%)"}, {"measurement": "Nausea, grade ≥3 AE of any cause", "value": "2 (8) n (%)"}, {"measurement": "Nausea, treatment-related AE", "value": "20 (77) n (%)"}, {"measurement": "Nausea, treatment-related grade ≥3 AE", "value": "2 (8) n (%)"}, {"measurement": "Oedema peripheral, all-grade AE of any cause", "value": "5 (19) n (%)"}, {"measurement": "On-study deaths", "value": "1 (4) n (%)"}, {"measurement": "Oropharyngeal pain, all-grade AE of any cause", "value": "9 (35) n (%)"}, {"measurement": "Pain in extremity, grade ≥3 AE of any cause", "value": "1 (4) n (%)"}, {"measurement": "Pneumonia, grade ≥3 AE of any cause", "value": "0 (0) n (%)"}, {"measurement": "Pruritus generalised, all-grade AE of any cause", "value": "3 (12) n (%)"}, {"measurement": "Pruritus generalised, treatment-related AE", "value": "2 (8) n (%)"}, {"measurement": "Pruritus generalised, treatment-related grade ≥3 AE", "value": "0 (0) n (%)"}, {"measurement": "Pruritus, all-grade AE of any cause", "value": "4 (15) n (%)"}, {"measurement": "Pruritus, treatment-related AE", "value": "3 (12) n (%)"}, {"measurement": "Pyrexia, all-grade AE of any cause", "value": "5 (19) n (%)"}, {"measurement": "Rash maculo-papular, all-grade AE of any cause", "value": "4 (15) n (%)"}, {"measurement": "Rash maculo-papular, grade ≥3 AE of any cause", "value": "1 (4) n (%)"}, {"measurement": "Rash maculo-papular, treatment-related AE", "value": "1 (4) n (%)"}, {"measurement": "Rash maculo-papular, treatment-related grade ≥3 AE", "value": "0 (0) n (%)"}, {"measurement": "Rash, treatment-related AE", "value": "1 (4) n (%)"}, {"measurement": "Rash, treatment-related grade ≥3 AE", "value": "0 (0) n (%)"}, {"measurement": "Sepsis, grade ≥3 AE of any cause", "value": "0 (0) n (%)"}, {"measurement": "Stomatitis (includes oropharyngeal pain and mucosal inflammation), treatment-related AE", "value": "10 (38) n (%)"}, {"measurement": "Stomatitis, all-grade AE of any cause", "value": "12 (46) n (%)"}, {"measurement": "Stomatitis, grade ≥3 AE of any cause", "value": "1 (4) n (%)"}, {"measurement": "Stomatitis, treatment-related grade ≥3 AE", "value": "1 (4) n (%)"}, {"measurement": "Thrombocytopenia, grade ≥3 AE of any cause", "value": "1 (4) n (%)"}, {"measurement": "Thrombocytopenia, treatment-related grade ≥3 AE", "value": "1 (4) n (%)"}, {"measurement": "Transitional cell carcinoma, grade ≥3 AE of any cause", "value": "1 (4) n (%)"}, {"measurement": "Urinary tract infection, all-grade AE of any cause", "value": "8 (31) n (%)"}, {"measurement": "Vomiting, all-grade AE of any cause", "value": "20 (77) n (%)"}, {"measurement": "Vomiting, grade ≥3 AE of any cause", "value": "1 (4) n (%)"}, {"measurement": "Vomiting, treatment-related AE", "value": "19 (73) n (%)"}, {"measurement": "Weight decreased, all-grade AE of any cause", "value": "7 (27) n (%)"}, {"measurement": "Weight decreased, treatment-related AE", "value": "4 (15) n (%)"}]}]}
